Measurements taken from US11058660B2, “External wound-healing agent, and external wound-healing material” (Mitsui Chemicals, Inc., priority 2014, dated 2021).

How the values were obtained:
[1] = test system: burn injury site on the back of a rat; assay: Rat burn injury healing test with nonwoven fabrics; type: in vivo; conditions: nonwoven fabric test
Experimental: In this animal testing, the nonwoven fabric A or the nonwoven fabric B was applied to a burn injury site on the back of a rat, and the healing effects by the application of the nonwoven fabric A and B were evaluated. The details of the experiment will be described below.
The back of a rat was depilated. In the depilated portion, hot water at 80° C. was brought into contact for 5 seconds to form two burn injury sites. To the burn injury sites, the nonwoven fabric A (about 2 cm×2 cm) and the nonwoven fabric B (about 2 cm×2 cm) were applied, and occlusive patching was performed using non-permeable surgical tape (Blenderm, 3M) and adhesive flexible bandage (Silkytex 3, ALCARE Co., Ltd). On days 3, 6, and 9 after the application of the nonwoven fabrics A and B, the nonwoven fabrics were removed, and the healing effect was evaluated. […]
Two burn injury sites were each formed on 15 rats, and then the nonwoven fabric A and the nonwoven fabric B were applied to each two burn injury sites. […] On day 3, the nonwoven fabrics A and B on the rats of test group A were removed, and the skin conditions were assessed. On day 6, the nonwoven fabrics A and B on the rats of test group B were removed, and the skin conditions were assessed, and on day 9, the nonwoven fabrics A and B on the rats of test group C were removed, and the skin conditions were assessed. […]

[2] = test system: burn injury sites on the backs of rats; assay: Rat burn injury healing test with films; type: in vivo; conditions: film test
Experimental: The skin conditions of the rats were evaluated according to the following scores (visual inspection).
0: asymptomatic, 1: slight, 2: mild, 3: moderate, 4: crusting, 5: necrosed
The test results were expressed as average values±standard errors and analyzed using EXSUS (Version 8.0, CAC EXICARE Corporation) and SAS (Version 9.3, SAS Institute Japan Ltd). For the scores of the skin conditions, the Wilcoxon test was conducted at a 2-sided significance level of 5%.
In this animal testing, the films 1 to 3 were applied to burn injury sites on the backs of rats, and the healing effects by the application of the films 1 to 3 were evaluated. For comparison, a burn injury site was left untreated, and the development of the untreated site was observed. The details of the experiment will be described below.
The back of a rat was depilated. In the depilated portion, hot water at 80° C. was brought into contact for 5 seconds to form two burn injury sites. […] On days 3, 6, and 9 after the application of the films 1 and 2, the films were removed, and the healing effect was evaluated.
Furthermore, two burn injury sites were formed on the back of another rat in the same manner as described above. […] On days 3, 6, and 9 after the application of the film 3, the film was removed, and the healing effect was evaluated. […]

## CCCCCCCCCCCCCCCCCC(=O)OCC(O)CO (centres unmarked) [glycerol alkyl ester, glycerol stearate]
[1]
  healing effect on skin having a burn injury (conclusion): has an external wound-healing effect
[2]
  healing effect on skin having a burn injury (conclusion): has an external wound-healing effect
